Experimental data published in US11840686B2, “Modulation of prekallikrein (PKK) expression” (Ionis Pharmaceuticals, Inc., priority 2013, dated 2023).
Strand notation (5' to 3'): a small letter for the sugar, then the base; units joined by * are phosphorothioate-linked, units joined directly phosphodiester-linked; [ ] holds rarer units or linkages, { } end groups; capitals alone tell only the bases. e = 2'-O-(2-methoxyethyl) (MOE); [5mC] = 5-methylcytosine; d = 2'-deoxy (DNA)

Test system: human PKK mRNA
Experiment: Antisense inhibition of human PKK mRNA in HepaRG cells, 5,000 nM (Example 2)
Type: cell-based
Outline: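 HepaRG cells, 20,000 per well, were electroporated with 5,000 nM MOE gapmer (phosphorothioate, 5-methylcytosine) and incubated about 24 hours. PKK mRNA was quantified by qRT-PCR with primer probe set RTS3454, normalized to RIBOGREEN total RNA, and expressed as percent inhibition versus untreated controls.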

[1] = HepaRG cells, electroporation with 5,000 nM antisense oligonucleotide, approximately 24 hours, PKK mRNA by RT-PCR (RTS3454), relative to untreated control cells, Table 6 experiment
[2] = HepaRG cells, electroporation, 5,000 nM antisense oligonucleotide, approx. 24 hours, primer probe set RTS3454, relative to untreated control cells, Table 12
[3] = human PKK mRNA in HepaRG cells, 5-10-5 gapmers, Table 14
[4] = Table 8, HepaRG cells, electroporation with 5,000 nM antisense oligonucleotide, approx. 24 hours, PKK mRNA by RT-PCR (RTS3454), relative to untreated control cells
[5] = HepaRG cells, 5,000 nM antisense oligonucleotide, human PKK mRNA, Table 18
[6] = HepaRG cells, 5,000 nM antisense oligonucleotide, 5-10-5 gapmers, Table 16
[7] = Table 7, HepaRG cells, electroporation with 5,000 nM antisense oligonucleotide, approx. 24 hours, PKK mRNA by RT-PCR (RTS3454), relative to untreated control cells
[8] = Table 9 experiment, HepaRG cells, 20,000 cells per well, electroporation with 5,000 nM antisense oligonucleotide, approx. 24 hours, PKK mRNA by RT-PCR (RTS3454), relative to untreated control cells
[9] = Table 10 experiment, HepaRG cells, 20,000 cells per well, electroporation with 5,000 nM antisense oligonucleotide, approx. 24 hours, PKK mRNA by RT-PCR (RTS3454), relative to untreated control cells
[10] = Table 13, human PKK mRNA in HepaRG cells, 5-10-5 gapmers
[11] = HepaRG cells, 5,000 nM antisense oligonucleotide, 5-10-5 gapmers, Table 17
[12] = human PKK mRNA, HepaRG cells, 5,000 nM antisense oligonucleotide, Table 18
[13] = human PKK mRNA, HepaRG cells, 5-10-5 motif oligonucleotides targeting SEQ ID NO: 1 and 10
[14] = HepaRG cells, electroporation with 5,000 nM antisense oligonucleotide, approximately 24 hours, PKK mRNA by RT-PCR (RTS3454), relative to untreated control cells, Table 5 experiment
[15] = HepaRG cells, electroporation, 5,000 nM antisense oligonucleotide, approx. 24 hours, primer probe set RTS3454, relative to untreated control cells, Table 11

## 546210 (antisense e[5mC]*e[5mC]*eA*eA*eT*dT*dT*d[5mC]*dT*dG*dA*dA*dA*dG*dG*eG*e[5mC]*eA*e[5mC]*eA) [compound 546210]
[1]
  % inhibition: 79%

## 547556 (eG*e[5mC]*e[5mC]*eA*eT*dT*dT*dT*dA*dT*d[5mC]*d[5mC]*d[5mC]*dT*dG*eA*eG*eA*eT*eT; antisense) [compound 547556]
[2]
  % inhibition: 55%

## 547607 (antisense eT*eA*eA*e[5mC]*eA*dA*dT*dA*dT*d[5mC]*dA*d[5mC]*dT*dG*dT*eA*e[5mC]*e[5mC]*eT*eA) [compound 547607]
[3]
  % inhibition: 49%

## 546857 (eT*eA*eT*eA*eA*d[5mC]*dT*dA*dT*dA*dA*d[5mC]*dA*dG*dT*eA*eT*e[5mC]*eA*e[5mC]; antisense) [compound 546857]
[3]
  % inhibition: 7%

## 547314 (antisense eG*e[5mC]*eA*e[5mC]*e[5mC]*dT*dG*dT*dT*d[5mC]*dG*dA*dT*dG*dT*eA*e[5mC]*eT*eT*eT) [compound 547314]
[1]
  % inhibition: 73%

## 547435 (antisense e[5mC]*eA*eA*eG*eA*dA*dG*dA*dG*dT*dT*dT*dG*dT*dT*e[5mC]*e[5mC]*eT*e[5mC]*e[5mC]) [compound 547435]
[4]
  % inhibition: 85%

## 548725 (DNA eA*eT*e[5mC]*dA*d[5mC]*dT*dG*dT*dA*d[5mC]*dT*dA*dG*eT*eT*eT*e[5mC]; antisense) [compound 548725]
[5]
  % inhibition: 32%

## 546946 (eA*e[5mC]*eT*e[5mC]*e[5mC]*d[5mC]*dA*dT*d[5mC]*dT*dA*d[5mC]*dT*d[5mC]*d[5mC]*e[5mC]*e[5mC]*e[5mC]*eA*eT; antisense) [compound 546946]
[6]
  % inhibition: 41%

## 547372 (eG*eA*eT*eG*eG*dT*d[5mC]*d[5mC]*dG*dA*d[5mC]*dA*d[5mC]*dA*d[5mC]*eA*eA*eA*eA*eG; antisense) [compound 547372]
[7]
  % inhibition: 32%

## 547407 (eT*eT*e[5mC]*eA*eA*dT*dT*d[5mC]*dT*dT*d[5mC]*dT*d[5mC]*d[5mC]*dT*e[5mC]*e[5mC]*eA*eA*eA; antisense) [compound 547407]
[7]
  % inhibition: 59%

## 546242 (eG*eG*eG*eT*eT*d[5mC]*dA*dG*dG*dT*dA*dA*dA*dG*dT*eT*e[5mC]*eT*eT*eT; antisense) [compound 546242]
[7]
  % inhibition: 8%

## 546321 (antisense eG*eA*eA*eG*eG*dT*dA*dG*dG*d[5mC]*dA*dT*dA*dT*dT*eG*eG*eT*eT*eT) [compound 546321]
[8]
  % inhibition: 53%
[9]
  % inhibition: 56%

## 547608 (antisense eT*eA*eT*eA*eA*d[5mC]*dA*dA*dT*dA*dT*d[5mC]*dA*d[5mC]*dT*eG*eT*eA*e[5mC]*e[5mC]) [compound 547608]
[3]
  % inhibition: 35%

## 546817 (eG*e[5mC]*eT*e[5mC]*eT*dG*dA*dG*d[5mC]*d[5mC]*dT*dT*d[5mC]*d[5mC]*dG*e[5mC]*e[5mC]*eT*e[5mC]*eT; antisense) [compound 546817]
[10]
  % inhibition: 77%

## 546599 (eA*eA*eG*eA*eG*dT*dA*dA*dG*d[5mC]*d[5mC]*dT*dT*d[5mC]*dA*e[5mC]*eA*eG*eG*eG; antisense) [compound 546599]
[11]
  % inhibition: 82%

## 547700 (antisense eG*eT*eA*e[5mC]*e[5mC]*dT*dA*dT*dA*dA*d[5mC]*dT*dA*dT*dA*eA*e[5mC]*eA*eA*eT) [compound 547700]
[6]
  % inhibition: 0%

## 546837 (eT*eA*eT*eA*eA*d[5mC]*dT*d[5mC]*dT*dA*dA*d[5mC]*dA*dG*dT*eA*eT*e[5mC]*eA*e[5mC]; antisense) [compound 546837]
[10]
  % inhibition: 0%

## 548775 (antisense eT*e[5mC]*e[5mC]*eT*dA*dT*dA*dA*d[5mC]*dT*dA*dT*dA*eA*e[5mC]*eA*eG) [compound 548775]
[12]
  % inhibition: 0%

## 547441 (antisense eG*eG*eT*eG*eT*d[5mC]*d[5mC]*dT*dA*dT*dG*dA*dG*dT*dG*eA*e[5mC]*e[5mC]*e[5mC]*eT) [compound 547441]
[4]
  % inhibition: 62%

## 546910 (eT*eA*eA*e[5mC]*eA*dA*dT*dA*dT*d[5mC]*dA*d[5mC]*dT*dG*dT*eA*e[5mC]*e[5mC]*eT*eT; antisense) [compound 546910]
[13]
  % inhibition: 82%

## 546302 (antisense eT*eG*eA*eG*eA*dA*dA*dG*dG*dT*dG*dT*dA*dT*d[5mC]*eT*eT*eT*eT*eG) [compound 546302]
[4]
  % inhibition: 87%

## 547282 (antisense eT*eT*eG*e[5mC]*eT*dT*dG*d[5mC]*dT*dT*dG*dA*dA*dT*dA*eA*eA*eA*eT*e[5mC]) [compound 547282]
[14]
  % inhibition: 53%

## 546153 (eG*eG*eG*eT*eG*dT*dA*d[5mC]*dA*dT*dG*dG*dA*dA*dG*e[5mC]*eT*eA*e[5mC]*eA; antisense) [compound 546153]
[14]
  % inhibition: 76%

## 547686 (antisense e[5mC]*eT*eG*eT*e[5mC]*d[5mC]*dT*dA*dT*dA*dA*d[5mC]*dT*dA*dT*eA*eT*e[5mC]*eA*e[5mC]) [compound 547686]
[6]
  % inhibition: 36%

## 547375 (eG*eT*eG*eA*eT*dA*dG*dG*dT*dG*d[5mC]*dA*dG*dA*dT*eG*eG*eT*e[5mC]*e[5mC]; antisense) [compound 547375]
[7]
  % inhibition: 72%

## 547013 (eT*eG*eA*eG*eA*dT*dT*dG*dG*dT*dG*dG*dT*dG*dG*eG*eT*eG*eG*e[5mC]; antisense) [compound 547013]
[11]
  % inhibition: 0%

## 547577 (e[5mC]*eT*eA*eA*e[5mC]*dA*dG*dT*dA*dT*d[5mC]*dA*d[5mC]*dT*dG*eT*eA*e[5mC]*eT*eA; antisense) [compound 547577]
[10]
  % inhibition: 79%

## 547271 (eT*eT*eA*eA*eA*dA*dA*dT*dG*dA*dA*d[5mC]*dG*dG*dT*e[5mC]*eT*eT*e[5mC]*eA; antisense) [compound 547271]
[14]
  % inhibition: 60%

## 547768 (antisense eT*eT*eG*e[5mC]*e[5mC]*d[5mC]*dT*d[5mC]*dA*d[5mC]*dA*d[5mC]*dA*dT*dT*e[5mC]*eG*eA*eA*eT) [compound 547768]
[11]
  % inhibition: 0%

## 547350 (antisense eG*eG*e[5mC]*eA*eT*dT*d[5mC]*dT*dT*d[5mC]*dA*dA*d[5mC]*dA*d[5mC]*eT*eG*e[5mC]*eT*eA) [compound 547350]
[1]
  % inhibition: 96%

## 548765 (antisense eA*eT*eA*eT*d[5mC]*dA*d[5mC]*dT*dG*dT*d[5mC]*d[5mC]*dT*eA*eT*eA*eA) [compound 548765]
[12]
  % inhibition: 0%

## 546695 (eG*eG*eG*eA*e[5mC]*dA*dA*dT*d[5mC]*dT*d[5mC]*d[5mC]*dA*d[5mC]*d[5mC]*e[5mC]*e[5mC]*e[5mC]*eG*eA; antisense) [compound 546695]
[2]
  % inhibition: 36%

## 546204 (antisense eA*eA*eT*eA*eG*dG*d[5mC]*dA*dA*dT*dT*dG*dT*dT*d[5mC]*e[5mC]*eG*eG*eT*eA) [compound 546204]
[1]
  % inhibition: 91%

## 547591 (e[5mC]*e[5mC]*eT*eA*eT*dA*dA*d[5mC]*dT*dA*dT*dA*dA*d[5mC]*dA*eG*eT*eA*eT*e[5mC]; antisense) [compound 547591]
[3]
  % inhibition: 23%

## 547714 (antisense e[5mC]*eT*eG*eT*e[5mC]*dT*dA*dA*d[5mC]*dT*dG*dG*d[5mC]*d[5mC]*dT*eG*eG*e[5mC]*eT*eG) [compound 547714]
[6]
  % inhibition: 19%

## 546167 (e[5mC]*eT*e[5mC]*e[5mC]*eA*dT*dG*dT*d[5mC]*dA*dT*dT*dG*dA*dT*eT*eG*eA*eA*e[5mC]; antisense) [compound 546167]
[14]
  % inhibition: 73%

## 548709 (DNA eG*eT*eA*d[5mC]*dT*dA*dG*dT*dT*dT*d[5mC]*d[5mC]*dT*eA*eT*eA; antisense) [compound 548709]
[5]
  % inhibition: 0%

## 547770 (antisense eT*eG*e[5mC]*eT*eT*dT*d[5mC]*dT*dG*d[5mC]*d[5mC]*d[5mC]*dA*dA*d[5mC]*e[5mC]*eT*e[5mC]*eT*eA) [compound 547770]
[11]
  % inhibition: 48%

## 547659 (eA*e[5mC]*eT*eA*eT*dA*dA*d[5mC]*dA*dG*dT*dA*dT*d[5mC]*dA*e[5mC]*e[5mC]*eG*eT*eA; antisense) [compound 547659]
[13]
  % inhibition: 80%

## 546387 (eA*eG*e[5mC]*eG*eG*dG*d[5mC]*dT*dT*d[5mC]*dA*dG*d[5mC]*d[5mC]*dA*eG*eA*e[5mC]*eA*eT; antisense) [compound 546387]
[15]
  % inhibition: 77%

## 547459 (antisense eG*eA*eG*eT*eT*dT*dT*dA*dT*d[5mC]*dA*dA*dG*dG*d[5mC]*eG*eA*eT*eA*eT) [compound 547459]
[8]
  % inhibition: 28%
[9]
  % inhibition: 51%

## 547491 (antisense e[5mC]*eA*eT*eG*eT*dA*d[5mC]*dT*d[5mC]*dA*dG*d[5mC]*dG*dA*d[5mC]*eT*eT*eT*eG*eG) [compound 547491]
[15]
  % inhibition: 47%
